In ChEMBL document CHEMBL1131625, “Neurosteroid analogues. 6. The synthesis and GABAA receptor pharmacology of enantiomers of dehydroepiandrosterone sulfate, pregnenolone sulfate, and (3alpha,5beta)-3-hydroxypregnan-20-one sulfate” (J Med Chem, 1998):

Assays:
[1] = biological target: GABA-A receptor; anion channel; test: Inhibitory activity against Gamma-aminobutyric acid A (GABA-A) receptor of rat hippocampal neurons; assay type: tissue-based, Hippocampus
Rattus norvegicus [2] = species: Rattus norvegicus; test: The Non-competitive block of GABA-mediated currents in cultured neurons from rat ventral mesencephalon; assay type: functional
Rattus norvegicus [3] = species: Rattus norvegicus; test: Inhibition of GABA-mediated currents by compound; assay type: functional

SMILES	IC50 [1] [µM]	Ki (Rattus norvegicus [2]) [µM]	Ki (Rattus norvegicus [3]) [µM]
CC(=O)[C@@H]1CC[C@@H]2[C@H]3CC=C4C[C@H](OS(=O)(=O)O)CC[C@@]4(C)[C@@H]3CC[C@]21C	76	–	–
CC(=O)[C@H]1CC[C@H]2[C@@H]3CC=C4C[C@@H](OS(=O)(=O)O)CC[C@]4(C)[C@H]3CC[C@]12C	82	–	–
C[C@@]12CC[C@@H]3[C@H](CC=C4C[C@H](OS(=O)(=O)O)CC[C@]43C)[C@H]1CCC2=O	80	81	–
C[C@]12CC[C@H](OS(=O)(=O)O)CC1=CC[C@@H]1[C@@H]2CC[C@]2(C)C(=O)CC[C@@H]12	11	13	–
CC(=O)[C@@H]1CC[C@H]2[C@@H]3CC[C@H]4C[C@@H](OS(=O)(=O)O)CC[C@@]4(C)[C@H]3CC[C@@]12C	–	–	47
CC(=O)[C@H]1CC[C@H]2[C@@H]3CC[C@@H]4C[C@H](OS(=O)(=O)O)CC[C@]4(C)[C@H]3CC[C@]12C	39	–	39
